Assay results reported in patent EP1178110A1, “EDG8 receptor for sphingosine 1-phosphate , its preparation and use” (Aventis Pharma Deutschland GmbH, priority 2000, dated 2002).

Columns and labels:
[1] = test system: CHO cells transfected with empty vector DNA; test: FLIPR assay of intracellular Ca2+ mobilization in control CHO cells without receptor; assay type: cell-based, chinese hamster; settings: S1P 10, 100 and 1000 nM; empty vector DNA (Fig.2A)
Method: CHO-K1 cells were grown in basal ISCOVE medium supplemented with 10% fetal bovine serum at 37°C in a humidified 5% CO2 incubator. For transfections, 2 x 10^5 cells were seeded into 35-mm dishes. About 24 hr later cells were transiently transfected at 50-80% confluency with the indicated receptor and G-protein constructs (1µg of plasmid DNA each) using the Lipofectamine transfection reagent and the supplied protocol (GIBCO). 18-24 hr after transfection cells were seeded into 96well plates at a density of 50.000 cells per well and cultured for 18-24 additional hr until used in the functional FLIPR assays. The cDNA for Gα16 was cloned from TF1 cells by RT-PCR and ligated into the pCDNA1.1 mammalian expression vector (Invitrogen). […]
Twenty-four hours after transfection, cells were splitted into 96-well, black-wall microplates (Corning) at a density of 50,000 cells per well. […] The fluorometric imaging plate reader (FLIPR, Molecular Devices) was programmed to transfer 100 µl from each well of the ligand microplate to each well of the cellplate and to record fluorescence during 3 min in 1 second intervals during the first minute and 3 second intervals during the last two minutes. Total fluorescence counts from the 18-s to 37-s time points are used to determine agonist activity. The instrument software normalizes the fluorescent reading to give equivalent initial readings at time zero.

human EDG8, SEQ ID NO. 2 = test: FLIPR assay of intracellular Ca2+ mobilization in transiently transfected CHO cells; assay type: cell-based; settings: for increase in intracellular Ca^2+: lipids at 10, 100 and 1000 nM, CHO cells with EDG8 and Gα16 or Gαqi5 (Fig.3), LPA and DHS1P active at 100 and 1000 nM, SPC and LPC tested up to 1 µM
Method: (§1) CHO-K1 cells were grown in basal ISCOVE medium supplemented with 10% fetal bovine serum at 37°C in a humidified 5% CO2 incubator. For transfections, 2 x 10^5 cells were seeded into 35-mm dishes. About 24 hr later cells were transiently transfected at 50-80% confluency with the indicated receptor and G-protein constructs (1µg of plasmid DNA each) using the Lipofectamine transfection reagent and the supplied protocol (GIBCO). 18-24 hr after transfection cells were seeded into 96well plates at a density of 50.000 cells per well and cultured for 18-24 additional hr until used in the functional FLIPR assays. The cDNA for Gα16 was cloned from TF1 cells by RT-PCR and ligated into the pCDNA1.1 mammalian expression vector (Invitrogen). Murine wild type Gαq was cloned from cells by RT-PCR and inserted into the BamHl-Nsil-sites of pCDNA1.1. To create the C-terminally modified Gαqi5 subunit, in which the last five aa of wt Gαq were replaced with the correspoding Gαi sequence, a 175-bp Bg/II-NsiI fragment was replaced, in a two piece ligation, with a synthetic DNA fragment, containing the desired codon changes. The correctness of all PCR-derived sequences was verified by sequencing in both directions.
(§2) Twenty-four hours after transfection, cells were splitted into 96-well, black-wall microplates (Corning) at a density of 50,000 cells per well. 18-24 hr later, cells were loaded with 95µl of HBSS containing 20 mM Hepes, 2.5 mM probenecid, 4 µM fluorescent calcium indicator dye Fluo4 (Molecular Probes) and 1% fetal bovine serum for 1 h(37°C, 5% CO2). Cells were washed three times with HBSS containing 20 mM Hepes and 2.5 mM probenecid in a cell washer. After the final wash, the solution was aspirated to a residual volume of 100 µl per 96 well. Lipid ligands were dissolved in DMSO as 2 mM stock solutions (treated with ultrasound when necessary) and diluted at least 1:100 into HBSS containing 20 mM HEPES, 2.5 mM probenecid and 0.4 mg/ml fatty acid free bovine serum albumine. Lipids were aliquoted as 2X solutions into a 96 well plate prior to the assay. The fluorometric imaging plate reader (FLIPR, Molecular Devices) was programmed to transfer 100 µl from each well of the ligand microplate to each well of the cellplate and to record fluorescence during 3 min in 1 second intervals during the first minute and 3 second intervals during the last two minutes. Total fluorescence counts from the 18-s to 37-s time points are used to determine agonist activity. The instrument software normalizes the fluorescent reading to give equivalent initial readings at time zero.

EDG6 receptor = test: as above; assay type: cell-based, human; settings: S1P 10, 100 and 1000 nM; CHO cells with EDG6, no cotransfected G-protein α subunit (Fig.2E)
Method: as §1, §2

EDG5 receptor = test: as above; assay type: cell-based, human; settings: S1P 10, 100 and 1000 nM; CHO cells with EDG5 (Fig.2D)
Method: as §1, §2

EDG3 receptor = test: as above; assay type: cell-based, human; settings: S1P 10, 100 and 1000 nM; CHO cells with EDG3 (Fig.2C)
Method: as §1, §2

EDG1 receptor = test: as above; assay type: cell-based, human; settings: S1P 10, 100 and 1000 nM; CHO cells with EDG1 (Fig.2B)
Method: as §1, §2

Molecule: CCCCCCCCCCCCC/C=C/[C@@H](O)[C@@H](N)COP(=O)(O)O [S1P, sphingosin 1-phosphate]
- rises in intracellular Ca^2+ [1]: None of the applied S1P concentrations was capable of eliciting significant rises in intracellular Ca^2+
- release of [Ca^2+]i (human EDG8, SEQ ID NO. 2; S1P 10, 100 and 1000 nM, CHO cells with EDG8, no cotransfected G-protein α subunit (Fig.2F)): did not release [Ca^2+]i
- mobilization of Ca^2+ (human EDG8, SEQ ID NO. 2; S1P 10, 100 and 1000 nM, CHO cells with EDG8 cotransfected with Gα16 or Gαqi5 (Fig.2F)): gained the ability to mobilize Ca^2+
- increase in intracellular Ca^2+ (human EDG8, SEQ ID NO. 2): most potent activator of EDG8
- Ca^2+ increase above basal levels (EDG6 receptor): failed to detect a significant Ca^2+ increase above basal levels
- mobilization of [Ca^2+]i (EDG5 receptor): mobilize [Ca^2+]i
- mobilization of [Ca^2+]i (EDG3 receptor): mobilize [Ca^2+]i
- mobilization of [Ca^2+]i (EDG1 receptor): mobilize [Ca^2+]i

Molecule: CCCCCCCCCCCCCC=CC(O)C(N)COP(=O)([O-])OCC[N+](C)(C)C (stereo not drawn) [SPC, sphingosylphosphorylcholine]
- increase in intracellular Ca^2+ (human EDG8, SEQ ID NO. 2): failed to generate any significant response

Molecule: CCCCCCCC/C=C\CCCCCCCC(=O)OCC(O)COP(=O)(O)O (stereo not drawn) [LPA, lysophosphatidic acid]
- increase in intracellular Ca^2+ (human EDG8, SEQ ID NO. 2): evoked [Ca^2+]i increases

Molecule: CCCCCCCCCCCCCCCC(O)C(N)COP(=O)(O)O (stereo not drawn) [DHS1P]
- increase in intracellular Ca^2+ (human EDG8, SEQ ID NO. 2): evoked [Ca^2+]i increases

Molecule: lysophosphatidylcholine [LPC]
- increase in intracellular Ca^2+ (human EDG8, SEQ ID NO. 2): failed to generate any significant response
